Literature values, collected in publication PMC4610172, “5-Arylaminouracil Derivatives as Potential Dual-Action Agents” (Acta Naturae, 2015).

Test system: MS-115 strain with multiple-drug resistance
Details: MS-115 resistant to isoniazid, rifampicin, streptomycin, ethambutol, pyrazinamide; cited from earlier work

SMILES: CCCCOc1ccc(Nc2cn(C3C=CC(O)C3)c(=O)n(C3C=CC(O)C3)c2=O)cc1 (stereo not shown) [Compound 19]
- Activity against MS-115 strain relative to sensitive H37Rv laboratory strain: higher activity against the MS-115 strain
